US20230346809A1, “USE OF CANNABIDIVARIN IN THE TREATMENT OF SEIZURES ASSOCIATED WITH RARE EPILEPSY SYNDROMES RELATED TO GENETIC ABNORMALITIES” (GW Research Limited, priority 2020, published 2023)
“Also recorded” adds a separate entry of the source.

Tests used:
[1] = tested on: patients with Dravet and Lennox-Gastaut syndrome; conditions: purified pharmaceutical formulation of CBD; three trials; cited from earlier work
[2] = tested on: maximal electroshock model; conditions: postnatal day 10 animals; cited from earlier work
[3] = tested on: methyl-6, 7-dimethoxy-4-ethyl-beta-carboline-3-carboxylate (DMCM) model; conditions: postnatal day 10 animals; cited from earlier work
[4] = tested on: pilocarpine-induced seizures; conditions: CBDV alone; Hill et al. 2012; cited from earlier work
[5] = tested on: mouse model of Rett syndrome; conditions: cited from earlier work
[6] = tested on: MeCP2 KO mouse model of Rett Syndrome; conditions: WO 2017/178807; cited from earlier work
[7] = tested on: seizures associated with Rett syndrome; assay: Open label, phase I trial of CBDV in patients diagnosed with Rett syndrome (caregiver seizure diary); type: in vivo, human; set-up: Mean seizure frequency reduction: concentration or dose not given beside the values; conditions: for Mean seizure frequency reduction: versus baseline
Source text: Example 1 below describes the use of a botanically derived purified CBDV in an open label, phase I trial to investigate the clinical efficacy and safety of purified pharmaceutical cannabidivarin formulation (CBDV) in the treatment of patients diagnosed with Rett syndrome.
Subjects were required to be on one or more AEDs at stable doses for a minimum of 4 weeks prior to baseline. Subjects had to have been diagnosed with intractable epilepsy: failed adequate trial of two, or more, standard anticonvulsants, and four or more quantifiable seizures less than 8 weeks prior to screening, and two or more quantifiable seizures in prospective baseline phase.
Patients were administered botanically derived purified CBDV in a 50 mg/mL sesame oil-based solution which was titrated to an initial dose of 2.5 milligrams per kilogram per day (mg/kg/day). Doses were then increased to a goal of 10 mg/kg/day.
There were five patients in this study, and each received CBDV for various durations of time. Modifications were made to concomitant AEDs as per clinical indication.
Seizure frequency, intensity, and duration were recorded by caregivers in a diary during a baseline period of at least 28 days. Changes in seizure frequency relative to baseline were calculated after at least 2 weeks and at defined timepoints of treatment.
Patients may be defined as responders if they had more than 50% reduction in seizure frequency compared to baseline. The percent change of seizure frequency for the end of the treatment period was calculated as follows: […]

[8] = Patient 1, total over 14 months of CBDV, baseline 0
[9] = Patient 2, total over 11 months of CBDV, baseline 0
[10] = Patient 3, total over 12 months of CBDV, baseline 0
[11] = Patient 4, total over 12.5 months of CBDV, baseline 0
[12] = Patient 5, total over 11 months of CBDV, baseline 0

## C=C(C)[C@@H]1CCC(C)=C[C@H]1c1c(O)cc(CCCCC)cc1O [CBD, Cannabidiol]
[1]
  Efficacy in randomized control trials: showed efficacy

## C=C(C)[C@@H]1CCC(C)=C[C@H]1c1c(O)cc(CCC)cc1O [CBDV, cannabidivarin]
[2]
  Seizure suppression: did not suppress seizures
[3]
  Seizure suppression: did not suppress seizures
[4]
  Effect on pilocarpine-induced seizures: did not have any effect
[5]; reference 2
  Behavioural alterations: rescue the behavioural alterations
[5]; reference 3
  Memory deficits: rescued memory deficits
  Neurological and motor defects: delayed the appearance of neurological and motor defects
[6]
  Bodyweight and survival: reduce the decrease in bodyweight and survival
  General condition and symptoms of mobility and breathing: improved general condition and symptoms of mobility and breathing
[7]; Patient 1, 14 months of CBDV
  Mean seizure frequency reduction: 52.5%
[7]; Patient 1, 14 months of CBDV, baseline 32.0/month
  Total seizure frequency: 15.2/month
[7]; [8]
  Focal seizures with impairment, Non-motor: seizure count: 2 /14 months
  Generalised seizures, Motor other: seizure count: 8 /14 months
  Generalised seizures, Motor tonic-clonic: seizure count: 0 /14 months
  Non-motor: seizure count: 0 /14 months
  Other: seizure count: 1 /14 months
  Unknown onset, Motor other: seizure count: 3 /14 months
  Unknown onset, Motor tonic-clonic: seizure count: 7 /14 months
[7]; Patient 1, total over 14 months of CBDV, baseline 32
  Focal seizures with impairment, Motor: seizure count: 192 /14 months
[7]; Patient 2, 11 months of CBDV
  Mean seizure frequency reduction: 79.4%
[7]; Patient 2, 11 months of CBDV, baseline 35.0/month
  Total seizure frequency: 7.2/month
[7]; [9]
  Focal seizures with impairment, Motor: seizure count: 0 /11 months
  Generalised seizures, Motor other: seizure count: 0 /11 months
  Generalised seizures, Motor tonic-clonic: seizure count: 0 /11 months
  Non-motor: seizure count: 0 /11 months
  Unknown onset, Motor other: seizure count: 0 /11 months
  Unknown onset, Motor tonic-clonic: seizure count: 0 /11 months
[7]; Patient 2, total over 11 months of CBDV, baseline 3
  Other: seizure count: 18 /11 months
[7]; Patient 2, total over 11 months of CBDV, baseline 32
  Focal seizures with impairment, Non-motor: seizure count: 61 /11 months
[7]; Patient 3, 12 months of CBDV
  Mean seizure frequency reduction: 90.0%
[7]; Patient 3, 12 months of CBDV, baseline 6.0/month
  Total seizure frequency: 0.6/month
[7]; [10]
  Focal seizures with impairment, Non-motor: seizure count: 0 /12 months
  Generalised seizures, Motor other: seizure count: 0 /12 months
  Non-motor: seizure count: 0 /12 months
  Other: seizure count: 0 /12 months
  Unknown onset, Motor other: seizure count: 0 /12 months
  Unknown onset, Motor tonic-clonic: seizure count: 0 /12 months
[7]; Patient 3, total over 12 months of CBDV, baseline 1
  Focal seizures with impairment, Motor: seizure count: 3 /12 months
[7]; Patient 3, total over 12 months of CBDV, baseline 5
  Generalised seizures, Motor tonic-clonic: seizure count: 4 /12 months
[7]; Patient 4, 12.5 months of CBDV
  Mean seizure frequency reduction: 5.7%
[7]; Patient 4, 12.5 months of CBDV, baseline 7.0/month
  Total seizure frequency: 6.6/month
[7]; [11]
  Focal seizures with impairment, Non-motor: seizure count: 0 /12.5 months
  Generalised seizures, Motor tonic-clonic: seizure count: 0 /12.5 months
  Non-motor: seizure count: 0 /12.5 months
  Other: seizure count: 6 /12.5 months
  Unknown onset, Motor other: seizure count: 0 /12.5 months
  Unknown onset, Motor tonic-clonic: seizure count: 0 /12.5 months
[7]; Patient 4, total over 12.5 months of CBDV, baseline 3
  Focal seizures with impairment, Motor: seizure count: 73 /12.5 months
[7]; Patient 4, total over 12.5 months of CBDV, baseline 4
  Generalised seizures, Motor other: seizure count: 4 /12.5 months
[7]; Patient 5, 11 months of CBDV
  Mean seizure frequency reduction: 98.1%
[7]; Patient 5, 11 months of CBDV, baseline 371.0/month
  Total seizure frequency: 7.2/month
[7]; [12]
  Focal seizures with impairment, Motor: seizure count: 0 /11 months
  Focal seizures with impairment, Non-motor: seizure count: 0 /11 months
  Non-motor: seizure count: 6 /11 months
  Other: seizure count: 0 /11 months
  Unknown onset, Motor tonic-clonic: seizure count: 0 /11 months
[7]; Patient 5, total over 11 months of CBDV, baseline 18
  Generalised seizures, Motor other: seizure count: 18 /11 months
[7]; Patient 5, total over 11 months of CBDV, baseline 25
  Generalised seizures, Motor tonic-clonic: seizure count: 38 /11 months
[7]; Patient 5, total over 11 months of CBDV, baseline 328
  Unknown onset, Motor other: seizure count: 17 /11 months
[7]; across listed seizure types
  Decrease of seizure frequency rates, maximum: up to 98%
[7]; all five patients, 11-14 months of CBDV
  Reduction in seizures over the period of treatment, range over patients: 5.7-98.1%
[7]; five patients
  Patients with more than 50% reduction in seizure frequency compared to baseline (responders): four of the five patients
  Patients with more than 75% reduction in seizure frequency compared to baseline: three
[7]; five patients, open label
  Effect on number of seizures associated with Rett syndrome: significantly reduce the number of seizures
[7]; focal motor/non-motor with impairment, generalised motor/non-motor, unknown onset motor, non-motor and other types
  Effect on frequency of seizure types: effective in reducing the frequency of all seizure types; also recorded: significant reduction in specific seizure types
[7]; four patients (patient 1-4) suffered from focal seizures with impairment
  Patients with focal seizures with impairment who experienced a reduction in their seizures: three (patients 1-3) of these patients experienced a reduction
[7]; three patients (patients 3-5) suffered from generalised seizures
  Patients with generalised seizures who experienced a reduction in these seizures: all three experienced a reduction
